“Also recorded” adds a separate entry of the source.

A short description of data set [1]: In vitro plasma stability, human plasma. The class given is in vitro ADME. The conditions noted are these: 0-120 min. Here is the method:
(§1) Experiments were conducted following a standard protocol. Briefly, [^18F]FE@SUPPY was added to lithium-heparinized human or rat plasma and after predetermined times (0, 60 and 120 min), the incubation mixture was eluted through a preconditioned SPE cartridge. The washed and newly eluted eluate solutions were injected into the radio-HPLC system (HPLC system as described in the section Ex vivo stability). The stationary phase was an analytical HPLC column LiChrospher LICHROCART® RP-18e (5 μm), 125 × 4 mm precolumn, and the mobile phase consisted of sodium citrate tribasic dehydrate (buffered at 0.034 M, pH 2.5)/acetonitrile 32:68 at a flow rate of 2 mL/min. Samples were incubated with a Thermomixer Compact from Eppendorf (Vienna, Austria) and centrifuged with a Universal 30 RF centrifuge from Hettich (Tuttlingen, Germany).

On the set-up of data set [2]: method as in doi:10.2174/1876388X00901010015. The conditions noted are these: cited from earlier work.
For a further data set, the system named is A3R. Details: method as in PMID 20447552. The conditions noted are these: cited from earlier work.
A short description of data set [3]: In vitro plasma stability, rat plasma. The class given is in vitro ADME. As to the method: as §1
Data set [4] has as its target T1, CHO cells expressing the human A3R (CHO-A3) (Homo sapiens, UniProt P0DMS8).
T1 construct: Karl-Norbert Klotz (University of Würzburg); host or cells: CHO cells stably transfected (CHO-A3), grown as subcutaneous masses in NMRI-nu/nu mice
T1 sequence (P0DMS8 1-318): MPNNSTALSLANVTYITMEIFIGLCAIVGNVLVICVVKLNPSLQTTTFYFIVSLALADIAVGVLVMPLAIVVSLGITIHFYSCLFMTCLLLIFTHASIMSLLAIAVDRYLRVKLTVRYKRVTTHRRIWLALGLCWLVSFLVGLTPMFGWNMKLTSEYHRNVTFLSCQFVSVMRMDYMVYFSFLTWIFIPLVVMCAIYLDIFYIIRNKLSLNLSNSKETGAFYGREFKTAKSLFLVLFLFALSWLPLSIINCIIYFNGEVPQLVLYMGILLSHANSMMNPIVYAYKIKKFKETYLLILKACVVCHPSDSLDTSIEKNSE
The data set can be described thus: Xenograft mouse model PET (CHO vs CHO-A3 solid tissue masses). Format: in vivo, mice. As to the method: Adult male Sprague-Dawley rats (Him:OFA; Animal Research Institute, Himberg, Austria) weighing 307 ± 35 g were kept under controlled environmental conditions (22 ± 1 °C, 40 – 70 % humidity, 12-h light/dark cycle) with free access to standard laboratory animal diet and tap water. Before being used in the experiments, the animals were allowed to adapt to the new conditions for at least a week. Prior to each experiment, the animals were placed in a chamber containing 2.5 % isoflurane in oxygen. When unconscious, the animals were taken from the chamber and kept under anaesthesia with 1.8 % isoflurane administered via a mask during the whole experiment. Pathogen-free, female NMRI-nu/nu mice (Taconic, Denmark) weighing 28.1 ± 0.8 g were housed under sterile conditions. Mice were injected subcutaneously into both upper flanks with 100 μL of a cell suspension in phosphate-buffered saline containing 10^6 CHO cells (right side) or 10^6 CHO-A3 cells (left side). During the imaging periods of 60 or 90 min (rats or xenografted mice, respectively) the isoflurane level was adjusted depending on the depth of anaesthesia. A humidifier was used to moisten the gas mixture before supplying it to the animal.
Around 17 days after cell inoculation, animals in the xenograft group were positioned in the imaging chamber and a dynamic 90-min PET scan was initiated at the start of [^18F]FE@SUPPY injection (2.21 ± 0.75 MBq dissolved in 100 μl physiological saline, pH 7.4; three animals) via a tail vein under isoflurane anaesthesia (2 %). Additionally, in this group, [^18F]FDG PET was performed 1 day prior to the [^18F]FE@SUPPY experiments. […] In brief, mice were deprived of food for 6 – 8 h before [^18F]FDG injection via a tail vein. Mice had access to drinking water at all times. Body warming was achieved by placing the entire cage on a heating pad kept at 38 °C. Warming was started around 30 min before tracer injection and was continued throughout the uptake and imaging period. [^18F]FDG (6.03 ± 1.31 MBq dissolved in 100 μL physiological saline, pH 7.4; three animals) was injected via a tail vein under isoflurane anaesthesia (2 %). Mice were kept under isoflurane anaesthesia throughout the whole uptake and imaging period. A 10-min static image was acquired at 1 h after [^18F]FDG injection. […]
For all PET scans (rats and xenografted mice), list mode data were acquired with an energy window of 350 – 750 keV (rats) or 250 – 750 keV (mice) and a 6-ns timing window. Before each PET scan, a transmission scan using a ^57Co point source was recorded over 10 min. […] A calibration factor for converting units of microPET images into absolute radioactivity concentration units was first generated by imaging a phantom filled with a known concentration of [^18F]FDG. […]

Details of data set [5]: method as in PMID 20447552. The conditions noted are these: rats, 30 min after injection; cited from earlier work.

In the case of `CCSC(=O)c1c(CC)nc(-c2ccccc2)c(C(=O)OCC[18F])c1CC` [[^18F]FE@SUPPY, 5-(2-[^18F]fluoroethyl)-2,4-diethyl-3-(ethylsulfanylcarbonyl)-6-phenylpyridine-5-carboxylate], the “stability in human plasma” value in data set [1] is on record as “no degradation; also recorded: no metabolites were observed; also recorded: Stable over 120 min in human plasma”. Further, the logP assessment entry in data set [2] is recorded as “high lipophilicity”. The “HPLClogD^7.4” value in data set [2] (pH 7.4) is listed as 4.04. In addition, in the data set with A3R, the “Autoradiography in humans and rats” value is “High selectivity; FE@SUPPLY comparable with MRS1523 [12]”. In addition, the “radioactivity from metabolites in rat plasma” value in data set [3] (60 min) was found to be 18.7 ± 3%. For the same compound, in data set [3] (120 min), the “radioactivity from metabolites in rat plasma” value is 35.0 ± 4%. Also, in data set [3] (observation period of 120 min), the “radioactive metabolites in rat plasma over the observation period” value is recorded as 19 – 35%. In addition, in data set [4] (compared to [^18F]FDG), the “Xenograft model of human A3R, finding” value was “Specific uptake in CHO-A3 solid mass (p ≤ 0.03) compared to [^18F]FDG”. Also, the “increased uptake (AUC) in CHO-A3 versus CHO tissue masses” value in data set [4] (xenografted NMRI-nu/nu mice, 90-min PET) is given as “around 1.42 fold”. Moreover, in data set [5], the metabolites in brain entry is recorded as “no metabolites” and the “parent compound left in plasma” value is 30%.

The record behind these values is PMC4349960, “[^18F]FE@SUPPY: a suitable PET tracer for the adenosine A3 receptor? An in vivo study in rodents” (European Journal of Nuclear Medicine and Molecular Imaging, 2015).
